In US20250188061A1, “NOVEL DEUTERATED PYRIMIDIN-2-YL SULFONAMIDE DERIVATIVES” (Hoffmann-La Roche Inc., priority 2022, published 2025) one finds IC50 data, which are given here for twelve compounds.

SMILES strings stand for the structures.

A word on the IC50: it is the midpoint of a concentration-inhibition curve. A lower IC50 goes with inhibition by little substance.

Sequence of human GPR17 short isoform (Q13304 29-367): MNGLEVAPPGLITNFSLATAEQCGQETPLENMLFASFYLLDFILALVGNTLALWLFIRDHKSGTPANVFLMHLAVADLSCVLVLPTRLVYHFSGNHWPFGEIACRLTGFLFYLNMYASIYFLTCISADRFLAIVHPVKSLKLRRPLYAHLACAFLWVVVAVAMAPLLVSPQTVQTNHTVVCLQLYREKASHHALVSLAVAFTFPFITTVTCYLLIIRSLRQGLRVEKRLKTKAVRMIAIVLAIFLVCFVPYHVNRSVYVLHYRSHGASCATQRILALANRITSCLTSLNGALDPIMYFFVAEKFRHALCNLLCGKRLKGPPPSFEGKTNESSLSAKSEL

This assay has as its target human GPR17 short isoform (Homo sapiens, UniProt Q13304). The assay can be described thus: GPR17 cAMP assay (hGPR17 cAMP, antagonist mode). As to conditions: CHO-K1 cells stably expressing human GPR17 short isoform; EC80 of agonist MDL29,951; forskolin 15 μM; TR-FRET cAMP. In kind it is cell-based. From the text: Changes in intracellular cyclic adenosine monophosphate (cAMP) levels were quantified using the Nano-TRF Detection Assay kit (Roche Diagnostics, Cat. No. 05214386001). This assay allows for direct cAMP quantification in a homogeneous solution. cAMP is detected based on time-resolved fluorescence energy transfer (TR-FRET) and competitive binding of ruthenylated cAMP and endogenous cAMP to an anti-cAMP monoclonal antibody labeled with AlexaFluor-700. The Ruthenium complex serves as the FRET donor and transfers energy to AlexaFluor-700. The FRET signal is inversely proportional to the cAMP concentration.
CHO-GPR17S cells were detached with Accutase and resuspended in assay buffer consisting of Hank's Balanced Salt Solution (HBSS), 10 mM HEPES (4-(2-hydroxyethyl) piperazine-1-ethanesulfonic acid solution) and 0.1% bovine serum albumin (pH 7.4). The cells were seeded in black 384-well plates (Corning) at a density of 10,000 cells/20 μl assay buffer until the addition of compounds.
Test antagonist compounds were serially diluted in dimethyl sulfoxide (DMSO) and spotted in 384-well plates. The compounds were then diluted in HBSS buffer supplemented with an EC80 concentration of MDL29,951 (3-(2-Carboxy-4,6-dichloroindol-3-yl) propionic acid) (GPR17 agonist) plus 3-Isobutyl-1-methylxanthine (IBMX) (0.5 mM final concentration) and added to the cells at room temperature. Forskolin (15 μM final concentration) was added 5 minutes after the test compounds and the cells were incubated at room temperature for 30 minutes. The assay was stopped by adding cAMP detection mix (containing detergents for cell lysis) for 90 minutes at room temperature.
Cellular cAMP was measured using a Paradigm reader (Molecular Devices). The raw data was used to calculate the FRET signal based on the assay's P-factor as per cAMP kit instructions. The data was normalized to the maximal activity of a reference antagonist and dose response curves were fitted to the percent activity of the test compounds using a sigmoidal dose response model (Genedata Screener).
In general terms: cAMP levels reflect the balance of adenylyl cyclase and phosphodiesterase activity.
`[2H]C([2H])(F)C([2H])([2H])Oc1cnc(NS(=O)(=O)c2c[nH]c3c(F)c(Cl)ccc23)nc1OC` [Example 1, 6-chloro-7-fluoro-N-[4-methoxy-5-(1,1,2,2-tetradeuterio-2-fluoro-ethoxy)pyrimidin-2-yl]-1H-indole-3-sulfonamide] returned a half-maximal inhibitory concentration (IC50) of 0.085 µM. Consider `[2H]C([2H])(F)C([2H])([2H])Oc1c(OC)nc(NS(=O)(=O)c2c[nH]c3nc(Br)ccc23)nc1OC` [Example 2, 6-bromo-N-[4,6-dimethoxy-5-(1,1,2,2-tetradeuterio-2-fluoro-ethoxy)pyrimidin-2-yl]-1H-pyrrolo [2,3-b]pyridine-3-sulfonamide], for which the IC50 was 0.042 µM. The result for `[2H]C([2H])(F)C([2H])([2H])Oc1c(OC)nc(NS(=O)(=O)c2c[nH]c3nc(Cl)ccc23)nc1OC` [Example 3, 6-chloro-N-[4,6-dimethoxy-5-(1,1,2,2-tetradeuterio-2-fluoro-ethoxy)pyrimidin-2-yl]-1H-pyrrolo[2,3-b]pyridine-3-sulfonamide] reads 0.063 µM; that for `[2H]C([2H])(c1cnc(NS(=O)(=O)c2c[nH]c3cc(F)ccc23)nc1OC)C(F)F` [Example 4, N-[5-(1,1-dideuterio-2,2-difluoro-ethyl)-4-methoxy-pyrimidin-2-yl]-6-fluoro-1H-indole-3-sulfonamide], 0.094 µM; that for `[2H]C([2H])(c1cnc(NS(=O)(=O)c2c[nH]c3c(F)c(Cl)ccc23)nc1OC)C(F)F` [Example 5, 6-chloro-N-[5-(1,1-dideuterio-2,2-difluoro-ethyl)-4-methoxy-pyrimidin-2-yl]-7-fluoro-1H-indole-3-sulfonamide], 0.107 µM. The result for `[2H]C([2H])(CF)Oc1cnc(NS(=O)(=O)c2c[nH]c3c(F)c(Cl)ccc23)nc1OC` [Example 6, 6-chloro-N-[5-(1,1-dideuterio-2-fluoro-ethoxy)-4-methoxy-pyrimidin-2-yl]-7-fluoro-1H-indole-3-sulfonamide] reads 0.105 µM; that for `[2H]C([2H])(c1cnc(NS(=O)(=O)c2c[nH]c3cc(Cl)ccc23)nc1OC)C(F)F` [Example 7, 6-chloro-N-[5-(1,1-dideuterio-2,2-difluoro-ethyl)-4-methoxy-pyrimidin-2-yl]-1H-indole-sulfonamide], 0.055 µM; that for `[2H]C([2H])(c1cnc(NS(=O)(=O)c2c[nH]c3c(F)c(Br)ccc23)nc1OC)C(F)F` [Example 8, 6-bromo-N-[5-(1,1-dideuterio-2,2-difluoro-ethyl)-4-methoxy-pyrimidin-2-yl]-7-fluoro-1H-indole-3-sulfonamide], 0.137 µM.

`[2H]C([2H])(c1c(OC)nc(NS(=O)(=O)c2c[nH]c3nc(Br)ccc23)nc1OC)C(F)F` [Example 9, 6-bromo-N-[5-(1,1-dideuterio-2,2-difluoro-ethyl)-4,6-dimethoxy-pyrimidin-2-yl]-1H-pyrrolo[2,3-b]pyridine-3-sulfonamide] had an IC50 of 0.023 µM.

Consider `[2H]C([2H])(Oc1c(OC)nc(NS(=O)(=O)c2c[nH]c3nc(Br)ccc23)nc1OC)C(F)F` [Example 10, 6-bromo-N-[5-(1,1-dideuterio-2,2-difluoro-ethoxy)-4,6-dimethoxy-pyrimidin-2-yl]-1H-pyrrolo[2,3-b]pyridine-3-sulfonamide], for which the IC50 is 0.081 µM. On to `[2H]C([2H])(c1c(OC)nc(NS(=O)(=O)c2c[nH]c3nc(Cl)ccc23)nc1OC)C(F)F` [Example 11, 6-chloro-N-[5-(1,1-dideuterio-2,2-difluoro-ethyl)-4,6-dimethoxy-pyrimidin-2-yl]-1H-pyrrolo[2,3-b]pyridine-3-sulfanomide], for which the IC50 came to 0.037 µM. The result for `[2H]C([2H])(c1c(OC)nc(NS(=O)(=O)c2c[nH]c3nc(C)ccc23)nc1OC)C(F)F` [Example 12, N-[5-(1,1-dideuterio-2,2-difluoro-ethyl)-4,6-dimethoxy-pyrimidin-2-yl]-6-methyl-1H-pyrrolo [2,3-b]pyridine-3-sulfonamide] reads 0.057 µM.
